In patent publication US12077503B2, “Substituted cyclic amides and their use as herbicides” (FMC CORPORATION, priority 2015, dated 2024):

How the values were obtained:
Type in all cases: in vivo
[1] = test system: barnyardgrass (Echinochloa crus-galli); experiment: Test G Pre-Emergence Protocol; conditions: Echinochloa crus-galli, pre-emergence, 312 h, evaluated after 13 days
Outline: (§1)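 Visual injury (0–100) at day 13 after a single pre-emergence spray. Rates: 15.625, 62.5, 250 g/ha in acetone–water 50:50 with 0.5% Tween 20. Growth conditions: 24/16° C, 14 h light, 65% humidity.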

corn (Zea mays) [2] = experiment: Test G Pre-Emergence Protocol; conditions: Zea mays, pre-emergence, 312 h, evaluated after 13 days
Outline: as §1

[3] = test system: giant foxtail (Setaria faberi); experiment: Test G Pre-Emergence Protocol; conditions: Setaria faberi, pre-emergence, 312 h, evaluated after 13 days
Outline: as §1

[4] = test system: ivy-leaved morning glory (Ipomoea hederacea); experiment: Test G Pre-Emergence Protocol; conditions: Ipomoea, pre-emergence, 312 h, evaluated after 13 days
Outline: as §1

[5] = test system: redroot pigweed (Amaranthus retroflexus); experiment: Test G Pre-Emergence Protocol; conditions: Amaranthus retroflexus, pre-emergence, 312 h, evaluated after 13 days
Outline: as §1

[6] = test system: velvetleaf (Abutilon theophrasti); experiment: Test G Pre-Emergence Protocol; conditions: Abutilon theophrasti, pre-emergence, 312 h, evaluated after 13 days
Outline: as §1

[7] = test system: barnyardgrass (Echinochloa crus-galli); experiment: Test G Post-Emergence Protocol; conditions: Echinochloa crus-galli, post-emergence, 312 h
Outline: (§2)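 Sow in soil; grow 8 d (24/16 °C, 14 h light, 65% humidity); spray 15.625/62.5/250 g/ha in acetone:water 50:50 + 0.5% Tween 20; grow on, water twice daily; score damage 0–100 at 13 d.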

corn (Zea mays) [8] = experiment: Test G Post-Emergence Protocol; conditions: Zea mays, post-emergence, 312 h
Outline: as §2

[9] = test system: giant foxtail (Setaria faberi); experiment: Test G Post-Emergence Protocol; conditions: Setaria faberi, post-emergence, 312 h
Outline: as §2

[10] = test system: ivy-leaved morning glory (Ipomoea hederacea); experiment: Test G Post-Emergence Protocol; conditions: Ipomoea, post-emergence, 312 h
Outline: as §2

[11] = test system: redroot pigweed (Amaranthus retroflexus); experiment: Test G Post-Emergence Protocol; conditions: Amaranthus retroflexus, post-emergence, 312 h
Outline: as §2

[12] = test system: velvetleaf (Abutilon theophrasti); experiment: Test G Post-Emergence Protocol; conditions: Abutilon theophrasti, post-emergence, 312 h
Outline: as §2

Cc1ccc([C@@H]2CN(C)C(=O)[C@H]2C(=O)Nc2cccc(F)c2F)cc1Cl (racemic) [Compound 1475]
pest or weed control at 15.625 g/ha ([1]; 15.625 g ai/ha, read-out: Barnyard grass damage rating (100=total damage to plant; 0=no damage to plant)): 10%
pest or weed control at 62.5 g/ha ([1]; 62.5 g ai/ha, 100=total damage to plant, 0=no damage to plant, read-out: plant damage rating, Barnyardgrass): 70%
pest or weed control at 250 g/ha ([1]; 250 g ai/ha, read-out: Barnyardgrass damage rating (100=total damage to plant; 0=no damage to plant)): 80%
plant injury at 15.625 g/ha (corn (Zea mays) [2]; 15.625 g ai/ha, read-out: Corn damage rating (100=total damage to plant; 0=no damage to plant)): 0%
plant injury at 62.5 g/ha (corn (Zea mays) [2]; 62.5 g ai/ha, 100=total damage to plant, 0=no damage to plant, read-out: plant damage rating, Corn): 30%
plant injury at 250 g/ha (corn (Zea mays) [2]; 250 g ai/ha, read-out: Corn damage rating (100=total damage to plant; 0=no damage to plant)): 50%
pest or weed control at 15.625 g/ha ([3]; 15.625 g ai/ha, read-out: Foxtail, Giant damage rating (100=total damage to plant; 0=no damage to plant)): 70%
pest or weed control at 62.5 g/ha ([3]; 62.5 g ai/ha, 100=total damage to plant, 0=no damage to plant, read-out: plant damage rating, Foxtail, Giant): 80%
pest or weed control at 250 g/ha ([3]; 250 g ai/ha, read-out: Foxtail, Giant damage rating (100=total damage to plant; 0=no damage to plant)): 90%
pest or weed control at 15.625 g/ha ([4]; 15.625 g ai/ha, read-out: Morning-glory, Ivy-leaved damage rating (100=total damage to plant; 0=no damage to plant)): 0%
pest or weed control at 62.5 g/ha ([4]; 62.5 g ai/ha, 100=total damage to plant, 0=no damage to plant, read-out: plant damage rating, Morningglory, Ivy-leaved): 0%
pest or weed control at 250 g/ha ([4]; 250 g ai/ha, read-out: Morningglory, Ivy-leaved damage rating (100=total damage to plant; 0=no damage to plant)): 10%
pest or weed control at 15.625 g/ha ([5]; 15.625 g ai/ha, read-out: Pigweed, Redroot damage rating (100=total damage to plant; 0=no damage to plant)): 0%
pest or weed control at 62.5 g/ha ([5]; 62.5 g ai/ha, 100=total damage to plant, 0=no damage to plant, read-out: plant damage rating, Pigweed, Redroot): 0%
pest or weed control at 250 g/ha ([5]; 250 g ai/ha, read-out: Pigweed, Redroot damage rating (100=total damage to plant; 0=no damage to plant)): 0%
pest or weed control at 15.625 g/ha ([6]; 15.625 g ai/ha, read-out: Velvetleaf damage rating (100=total damage to plant; 0=no damage to plant)): 0%
pest or weed control at 62.5 g/ha ([6]; 62.5 g ai/ha, 100=total damage to plant, 0=no damage to plant, read-out: plant damage rating, Velvetleaf): 0%
pest or weed control at 250 g/ha ([6]; 250 g ai/ha, read-out: Velvetleaf damage rating (100=total damage to plant; 0=no damage to plant)): 0%
pest or weed control at 15.625 g/ha ([7]; 15.625 g ai/ha, evaluated after 13 days (100=total damage to plant; 0=no damage to plant), read-out: Barnyardgrass damage rating): 30%
pest or weed control at 62.5 g/ha ([7]; 62.5 g ai/ha, evaluated after 13 days, read-out: Barnyardgrass damage rating (100=total damage to plant; 0=no damage to plant)): 60%
pest or weed control at 250 g/ha ([7]; 250 g ai/ha, evaluated after 13 days, read-out: damage to plant, Barnyardgrass (100=total damage to plant; 0=no damage to plant)): 50%
plant injury at 15.625 g/ha (corn (Zea mays) [8]; 15.625 g ai/ha, evaluated after 13 days (100=total damage to plant; 0=no damage to plant), read-out: Corn damage rating): 30%
plant injury at 62.5 g/ha (corn (Zea mays) [8]; 62.5 g ai/ha, evaluated after 13 days, read-out: Corn damage rating (100=total damage to plant; 0=no damage to plant)): 40%
plant injury at 250 g/ha (corn (Zea mays) [8]; 250 g ai/ha, evaluated after 13 days, read-out: damage to plant, Corn (100=total damage to plant; 0=no damage to plant)): 70%
pest or weed control at 15.625 g/ha ([9]; 15.625 g ai/ha, evaluated after 13 days (100=total damage to plant; 0=no damage to plant), read-out: Foxtail, Giant damage rating): 70%
pest or weed control at 62.5 g/ha ([9]; 62.5 g ai/ha, evaluated after 13 days, read-out: Foxtail, Giant damage rating (100=total damage to plant; 0=no damage to plant)): 70%
pest or weed control at 250 g/ha ([9]; 250 g ai/ha, evaluated after 13 days, read-out: damage to plant, Foxtail, Giant (100=total damage to plant; 0=no damage to plant)): 70%
pest or weed control at 15.625 g/ha ([10]; 15.625 g ai/ha, evaluated after 13 days (100=total damage to plant; 0=no damage to plant), read-out: Morningglory, Ivy-leaved damage rating): 20%
pest or weed control at 62.5 g/ha ([10]; 62.5 g ai/ha, evaluated after 13 days, read-out: Morningglory, Ivy-leaved damage rating (100=total damage to plant; 0=no damage to plant)): 0%
pest or weed control at 250 g/ha ([10]; 250 g ai/ha, evaluated after 13 days, read-out: damage to plant, Morningglory, Ivy-leaved (100=total damage to plant; 0=no damage to plant)): 70%
pest or weed control at 15.625 g/ha ([11]; 15.625 g ai/ha, evaluated after 13 days (100=total damage to plant; 0=no damage to plant), read-out: Pigweed, Redroot damage rating): 10%
pest or weed control at 62.5 g/ha ([11]; 62.5 g ai/ha, evaluated after 13 days, read-out: Pigweed, Redroot damage rating (100=total damage to plant; 0=no damage to plant)): 30%
pest or weed control at 250 g/ha ([11]; 250 g ai/ha, evaluated after 13 days, read-out: damage to plant, Pigweed, Redroot (100=total damage to plant; 0=no damage to plant)): 50%
pest or weed control at 15.625 g/ha ([12]; 15.625 g ai/ha, evaluated after 13 days (100=total damage to plant; 0=no damage to plant), read-out: Velvetleaf damage rating): 10%
pest or weed control at 62.5 g/ha ([12]; 62.5 g ai/ha, evaluated after 13 days, read-out: Velvetleaf damage rating (100=total damage to plant; 0=no damage to plant)): 10%
pest or weed control at 250 g/ha ([12]; 250 g ai/ha, evaluated after 13 days, read-out: damage to plant, Velvetleaf (100=total damage to plant; 0=no damage to plant)): 10%
